Values joined by “and” are separate entries in the source; they are usually repeats but may differ in a detail not shown here. Identical values can stand only once.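 Five compound concentrations were applied to cells in 96-well plates for 48 hours; endpoints were derived by simple linear interpolation of the resulting dose-response curve. The concentration for 50% growth inhibition is given as GI50. At the TGI there is no net growth.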 *1 amine or outer side, *2 acyl side, *3 side chain or, on linkers, in order; H or OH if unused. Where a SMILES comes first, the peptide text is derived from it. The star is where a group is joined. γGlu = O=C(O)[CH](CCC(=O)[*:2])N[*:1]; NHOH = ON*
What was measured:
Test in all cases: inhibition of tumour cell growth, NCI panel, 48 h
LOX IMVI melanoma = tested on: LOX IMVI melanoma
EKVX NSCLC = tested on: EKVX NSCLC
SK-MEL-28 melanoma = tested on: SK-MEL-28 melanoma
SN12C renal = tested on: SN12C renal
SF-268 CNS = tested on: SF-268 CNS
HCT-15 colon = tested on: HCT-15 colon
HS 578T breast = tested on: HS 578T breast
UACC-62 melanoma = tested on: UACC-62 melanoma
HOP-92 NSCLC = tested on: HOP-92 NSCLC
UO-31 renal = tested on: UO-31 renal

SMILES | TGI (LOX IMVI melanoma) [µM] | TGI (EKVX NSCLC) [µM] | TGI (SK-MEL-28 melanoma) [µM] | TGI (SN12C renal) [µM] | TGI (SF-268 CNS) [µM] | TGI (HCT-15 colon) [µM] | TGI (HS 578T breast) [µM] | TGI (UACC-62 melanoma) [µM] | TGI (HOP-92 NSCLC) [µM] | TGI (UO-31 renal) | GI50 (HOP-92 NSCLC) | GI50 (LOX IMVI melanoma) | GI50 (EKVX NSCLC) [µM] | GI50 (SK-MEL-28 melanoma) [µM] | GI50 (SN12C renal) [µM] | GI50 (SF-268 CNS) [µM] | GI50 (UO-31 renal) | GI50 (HCT-15 colon) [µM] | GI50 (HS 578T breast)
Cc1cc(C)c2c(-c3ccccc3)cc(=O)[nH]c2c1 | > 100 | > 100 | > 100 | > 100 | > 100 | > 100 | > 100 | > 100 |  |  |  |  |  |  |  |  |  |  | 
Fc1ccc(/C=C2\COCC3=C2NC(=S)NC3c2ccc(F)cc2)cc1 (stereo not drawn) | 38.2 | 42.6 |  | 33.3 | 33.9 | 32.1 | 52.7 | 32.4 | 34 | 33.5 µM |  |  |  |  |  |  |  |  | 
COc1ccccc1C1C(C#N)=C(N)SC(N)=C1C#N | > 100 | > 100 | > 100 | 42 | > 100 | > 100 | > 100 |  | > 100 | > 100 µM | 47.1 µM | 50.2 µM | > 100 | 43.3 | 15.5 | 48.9 | 82.5 µM | 81.3 | > 100 µM
COC(=O)/C(=C(/C)c1ccco1)P(=O)(OC)OC | > 100 | > 100 | > 100 | > 100 | > 100 | > 100 | > 100 | > 100 | > 100 |  |  |  |  |  |  |  |  |  | 
CCN1CC2=C(OC(N)=C(C#N)C2c2ccc(Cl)cc2)/C(=C/c2ccc(Cl)cc2)C1 (stereo not drawn) | > 100 | > 100 | 42.9 |  | 49.6 | > 100 | > 100 | > 100 | 58.6 | > 100 µM |  |  |  |  |  |  |  |  | 
NCC(=O)N[C@H]1c2ccsc2/C(=N/O)[C@H]1O | > 100 | > 100 | > 100 | > 100 |  | > 100 |  | > 100 | > 100 | > 100 µM |  |  |  |  |  |  |  |  | 
CC(Nc1cccc(Cl)c1)c1ccncc1 (stereo not drawn) | > 100 | > 100 | > 100 | > 100 | > 100 | > 100 | > 100 |  | > 100 | > 100 µM |  |  |  |  |  |  |  |  | 
Cn1c2ccccc2n2c(=O)c(-c3ccc(Cl)cc3)nnc12 | > 100 | > 100 | > 100 | > 100 | > 100 | > 100 | > 100 |  | > 100 | > 100 µM |  |  |  |  |  |  |  |  | 
c1ccc(C/C(=N\Nc2nc3ccccc3[nH]2)c2ccccn2)cc1 | 8.1 |  | 11 | 10.9 | 12 | 15.6 | 20 | 2.79 | 0.653 | 1.88 µM |  |  |  |  |  |  |  |  | 
NC(CCC(=O)NC(CCC(=O)NO)C(=O)NCC(=O)O)C(=O)O (stereo not drawn) (γGlu-Glu(NHOH)-Gly-OH; configuration not given here) | > 100 | > 100 | > 100 | > 100 | > 100 | > 100 |  | > 100 | > 100 | > 100 µM |  |  |  |  |  |  |  |  | 
C[N+](C)(N)Cc1nc(-c2ccc(Cl)cc2)no1 | > 100 | > 100 | > 100 | > 100 |  | > 100 | > 100 | > 100 | > 100 |  |  |  |  |  |  |  |  |  | 
COC(=O)C12CCCN1CCC2 | > 100 | > 100 | > 100 | > 100 | > 100 | > 100 |  | > 100 |  | > 100 µM |  |  |  |  |  |  |  |  | 
COC(=O)C12C(=O)CC3CCC1C32C(=O)OC (stereo not drawn) | > 100 | > 100 | > 100 | > 100 | > 100 | > 100 |  | > 100 |  | > 100 µM |  |  |  |  |  |  |  |  | 
CC(C)(C)OC(=O)C1C(=O)NC(=O)CC1C(OCc1ccccc1)C(OCc1ccccc1)C(COCc1ccccc1)OCc1ccccc1 (stereo not drawn) | > 100 | > 100 | > 100 | > 100 | > 100 | > 100 | > 100 |  | > 100 | > 100 µM and 30.3 µM | > 100 µM and 13.3 µM | > 100 µM and 41.8 µM |  |  |  |  | 42.6 µM and 10.5 µM |  | > 100 µM and 16.2 µM
CCOC(=O)CCCN | > 100 | > 100 | > 100 | > 100 | > 100 | > 100 | > 100 |  | > 100 | > 100 µM |  |  |  |  |  |  |  |  | 
CCOC(=O)N1CCC2(CC1)C[C@](Sc1ccccc1)(C(C)=O)[C@H](C)O2 | > 100 | > 100 | > 100 |  | > 100 | > 100 | > 100 | > 100 | > 100 | > 100 µM |  |  |  |  |  |  |  |  | 
COc1cc(OC)c(-n2[nH]c(=O)n(C)c2=O)c(OC)c1 | > 100 | > 100 | > 100 | > 100 | > 100 | > 100 | > 100 | > 100 |  | > 100 µM |  |  |  |  |  |  |  |  | 
CN(C)CC1CCC/C(=C\c2ccc(Cl)c(Cl)c2)C1=O (stereo not drawn) |  | 25.5 | 11.4 | 8.79 | 8.88 | 6.33 | 9.51 | 12.8 | 13.4 | 5.99 µM |  |  |  |  |  |  |  |  | 
Cc1ccc(N=NC(=Nc2ccc(F)cc2)c2ccc(N(CCC#N)CCC#N)cc2)cc1 |  | > 100 | > 100 | > 100 | > 100 | > 100 | > 100 | > 100 | > 100 | > 100 µM |  |  |  |  |  |  |  |  | 
COC1CCC(O)C(CO)O1 (stereo not drawn) | 65.4 | > 100 | > 100 | > 100 |  | > 100 |  | > 100 | > 100 | > 100 µM |  |  |  |  |  |  |  |  | 
CN(C(=O)Cc1cc(Cl)c(Cl)cc1NC(=O)CCCN)[C@H]1CCCC[C@@H]1N1CCCC1 | 39.3 | > 100 | 33 | > 100 | 30.6 | > 100 |  | 40.4 |  | > 100 µM |  |  |  |  |  |  |  |  | 
O=C(CN1CCCCC1)c1ccc2[nH]c(=O)oc2c1 | > 100 | > 100 | > 100 | > 100 | > 100 | > 100 | > 100 | > 100 |  |  |  |  |  |  |  |  |  |  | 
